Common to all, as to format: biochemical
For assay [1], the target named is T1, human protein kinase CK2 holoenzyme (CK2α2β2) (Homo sapiens, UniProt P68400).
T1 construct: made in house
Description: CE-based CK2 inhibition assay (phosphorylation of substrate peptide […]). Conditions: for remaining activity at 10 µM: 10 µM compound, compared to activity without compound, read-out: residual enzymatic activity; for IC50: CK2 holoenzyme, 100 µM ATP, 13 concentrations 0.01 nM to 10 µM. As to the method: The phosporylation of an artificial substrate peptide ([…]) by the purified holoenzyme was analyzed in a capillary electrophoresis (CE) assay as described before. This peptide is commonly used for the determination of CK2 activity and phosphorylation was determined in the presence and in the absence of the compounds. For this purpose a stock solution of 10 mM in DMSO was prepared for each compound and diluted in the assay to a final concentration of 10 µM. […] Consequently 13 concentrations of both dibenzofurans, ranging from 0.01 nM to 10 µM were tested on their inhibition of CK2 dependent substrate phosphorylation in the presence of 100 μM ATP. […] This can be used to determine the so-called apparent Ki (Ki app) for different substrate (ATP) concentrations.
Human protein kinase CK2 holoenzyme was pre-incubated for 10 min with 13 different concentrations of each compounds ranging from 0.01 nM to 10 μM before the enzymatic activity was determined. […] The resulting inhibition in % was set into relation to the concentration of the corresponding compound in a logarithmic scale. For the calculation of the sigmoidal curve fitting the date GraphPad Prism (GraphPad, La Jolla, CA, USA) was used, as well as for the compound concentrations corresponding to 50% enzyme inhibition.
Phosphorylation of the substrate peptide […] by human protein kinase CK2 holoenzyme was determined in the CE assay at different ATP-concentrations (6, 30, 60, 150, 300, and 400 μM).
In order to determine the inhibition toward human protein kinase CK2 holoenzyme, the dibenzo[b,d]furan derivatives were subjected to the CE-based CK2 assay, as already described for other novel CK2 inhibitors before. In summary, 78 µL of kinase buffer (50 mM Tris/HCl, pH 7.5, 100 mM NaCl, 10 mM MgCl2 and 1 mM DTT) containing 0.25 µg CK2 holoenzyme were supplemented with 2 µL of the test-compound dissolved in DMSO and incubated at 37 °C for 10 min. After the addition of 120 µL of assay buffer (25 mM Tris/HCl, pH 8.5, 150 mM NaCl, 5 mM MgCl2, 1 mM DTT, 190 µM substrate peptide […] and 100 µM ATP) the CK2 reactions were carried out for 15 min at 37 °C, before they were stopped by ice cooling and the addition of 5 µL of EDTA (10 mM, pH 8.0). The samples were then analyzed for phosphorylation of the CK2 substrate peptide by capillary electrophoresis. […] Controls for 100% and 0% inhibition were realized by samples containing pure DMSO and samples additionally lacking the CK2 holoenzyme. IC50 were calculated from the obtained dose response curves.

The target of a further assay is T2, CK2α’ (Homo sapiens, UniProt P19784).
T2 construct: purchased Reaction Biology Corp
In words: kinase selectivity profile (Reaction Biology Corp.). To be noted: 10 µM inhibitor, 10 µM ATP, relative to control without inhibitor; read-out: residual activity. The text has this: (§1) This demands further investigation.

For the next assay, the target named is T3, CK2α (Homo sapiens, UniProt P68400).
T3 construct: purchased Reaction Biology Corp
The assay is described as above. Conditions: 10 µM inhibitor, 10 µM ATP, relative to control without inhibitor; read-out: residual activity.
Description: as §1

In assay [2] the target is T4, surface displayed CK2α + CK2β (CK2α containing human CK2 holoenzyme) (Homo sapiens, UniProt P68400).
T4 construct: surface-display (autodisplay) carrier protein; made in house; host or cells: Escherichia coli BL21 (DE3), enzyme left on the cell surface
Description: whole-cell CK2 selectivity assay, holoenzyme surface displayed on E. coli. To be noted: 600 µM ATP, 100 µM substrate peptide. The text has this:
We recently reported a whole cell CK2 activity assay, which can be used for testing the selectivity of compounds towards CK2α and CK2α’ [47]. It is based on the surface display of the human CK2 subunits, either α or α’ together with β on E. coli, were they are able to form a functional tetrameric holoenzymes, either ααββ or α’α’ββ, depending on which α isoform has been expressed. This technique was used to investigate whether 4a or 5 have preference to one of the two catalytic isoforms of CK2.
For this purpose, their IC50 were determined following the protocol of the recently described whole-cell CK2 selectivity assay. In summary, 78 µL of a bacterial suspension of Escherichia coli BL21 (DE3) either surface displaying CK2α + CK2β or CK2α’ + CK2β in kinase buffer (50 mM Tris/HCl, pH 8.5, 100 mM NaCl, 10 mM MgCl2 and 1 mM DTT) were supplemented with 2 µL of the test compound dissolved in DMSO and incubated at 37 °C and 400 rpm for 10 min. CK2 reactions were started by the addition of 120 µL of assay buffer (25 mM Tris/HCl, pH 7.5, 150 mM NaCl, 5 mM MgCl2, 1 mM DTT, 167 µM substrate peptide […] and 1 mM ATP) leading to a total reaction volume of 200 µL with final concentrations of 100 µM for the substrate peptide and 600 µM for ATP. […] After the samples were incubated for 120 min at 37 °C and 400 rpm, the CK2 presenting bacteria were removed by centrifugation (3850× g, 5 min, 4 °C). The obtained supernatants were transferred to the wells of a 96 well-microplate and finally supplemented with EDTA to a concentration of 12.5 mM to definitely stop the enzymatic reactions. The samples were then subjected to a Beckman Coulter pa800 plus (Krefeld, Germany) CE system and analyzed for phosphorylation of the substrate peptide. Samples containing pure DMSO served as controls for 0% inhibition and samples additionally lacking ATP served as controls for 100% inhibition. […] IC50 values were calculated from the resulting dose-response curves.
CK2α’ + CK2β (right column).
Mean values ± standard errors of
the means (SEM) are shown. […]

The next assay deals with T5, Aurora A (Homo sapiens, UniProt O14965).
T5 construct: purchased Reaction Biology Corp
T5 sequence (O14965 1-403): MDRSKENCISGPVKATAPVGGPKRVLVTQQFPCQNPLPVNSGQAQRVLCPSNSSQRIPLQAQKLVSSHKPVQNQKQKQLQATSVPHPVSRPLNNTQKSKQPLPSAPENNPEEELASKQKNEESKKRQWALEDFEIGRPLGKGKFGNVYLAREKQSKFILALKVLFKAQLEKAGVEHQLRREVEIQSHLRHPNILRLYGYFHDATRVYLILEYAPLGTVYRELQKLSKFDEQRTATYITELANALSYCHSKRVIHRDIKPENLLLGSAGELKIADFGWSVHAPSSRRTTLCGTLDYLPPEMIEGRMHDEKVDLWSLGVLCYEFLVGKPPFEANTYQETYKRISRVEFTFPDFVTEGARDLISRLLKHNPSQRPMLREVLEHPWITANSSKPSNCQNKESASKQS
In words: kinase selectivity profile. Conditions: 10 µM inhibitor, 10 µM ATP.
Description: as §1

For another assay, the target named is T6, CAMKK2 (Homo sapiens, UniProt Q96RR4).
T6 construct: purchased Reaction Biology Corp
In words: kinase selectivity profile. To be noted: 10 µM inhibitor, 10 µM ATP.
Description: as §1

The target of the next assay is T7, FLT3 (Homo sapiens, UniProt P36888).
T7 construct: purchased Reaction Biology Corp
Description: kinase selectivity profile. Conditions: 10 µM inhibitor, 10 µM ATP.
Description: as §1

[3] abbreviates: Morrison equation, ATP 6–400 µM, best fit line extrapolated to ATP concentration = 0, read-out: apparent Ki (Ki app).

These results are taken from article PMC5874719, “A π-Halogen Bond of Dibenzofuranones with the Gatekeeper Phe113 in Human Protein Kinase CK2 Leads to Potent Tight Binding Inhibitors” (Pharmaceuticals, 2018).

One may read the IC50 as the concentration that gives 50% inhibition.

Molecules are shown by their SMILES. Where “and” joins values, the source holds several entries; their conditions need not be identical. Identical values can stand only once. Like-named read-outs stand apart in the source and are kept apart here. Bounds are passed on as bounds.

T1 sequence (P68400 whole entry): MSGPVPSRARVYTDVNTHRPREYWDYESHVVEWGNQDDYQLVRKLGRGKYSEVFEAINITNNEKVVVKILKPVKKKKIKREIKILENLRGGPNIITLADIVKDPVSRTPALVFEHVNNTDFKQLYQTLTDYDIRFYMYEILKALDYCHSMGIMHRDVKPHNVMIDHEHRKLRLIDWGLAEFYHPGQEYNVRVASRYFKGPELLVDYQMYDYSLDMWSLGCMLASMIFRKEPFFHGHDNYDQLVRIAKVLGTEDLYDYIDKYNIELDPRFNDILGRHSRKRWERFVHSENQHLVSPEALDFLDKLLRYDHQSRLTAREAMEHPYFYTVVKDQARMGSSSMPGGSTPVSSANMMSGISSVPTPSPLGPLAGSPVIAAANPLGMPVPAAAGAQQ
T1 sequence (P67870 whole entry partner): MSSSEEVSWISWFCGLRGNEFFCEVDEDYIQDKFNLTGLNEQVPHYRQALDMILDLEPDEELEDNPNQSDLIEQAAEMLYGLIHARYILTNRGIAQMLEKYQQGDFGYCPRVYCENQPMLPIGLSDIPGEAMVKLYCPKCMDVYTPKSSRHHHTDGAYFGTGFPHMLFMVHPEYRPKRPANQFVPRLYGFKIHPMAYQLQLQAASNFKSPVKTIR
T4 sequence (P68400 whole entry): as the sequence (P68400 whole entry) above
T4 sequence (P67870 whole entry partner): as the sequence (P67870 whole entry partner) above
T2 sequence (P19784 whole entry): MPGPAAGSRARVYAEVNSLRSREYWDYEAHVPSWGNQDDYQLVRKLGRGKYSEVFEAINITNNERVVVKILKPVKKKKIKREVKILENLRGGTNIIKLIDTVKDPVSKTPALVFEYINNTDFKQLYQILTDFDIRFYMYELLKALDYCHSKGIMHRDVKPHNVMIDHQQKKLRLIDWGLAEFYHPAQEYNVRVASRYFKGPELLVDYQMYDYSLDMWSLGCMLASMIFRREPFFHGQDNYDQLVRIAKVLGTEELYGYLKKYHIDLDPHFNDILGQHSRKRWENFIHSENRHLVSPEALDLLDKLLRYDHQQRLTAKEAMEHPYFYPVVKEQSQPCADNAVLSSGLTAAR
T6 sequence (Q96RR4 whole entry): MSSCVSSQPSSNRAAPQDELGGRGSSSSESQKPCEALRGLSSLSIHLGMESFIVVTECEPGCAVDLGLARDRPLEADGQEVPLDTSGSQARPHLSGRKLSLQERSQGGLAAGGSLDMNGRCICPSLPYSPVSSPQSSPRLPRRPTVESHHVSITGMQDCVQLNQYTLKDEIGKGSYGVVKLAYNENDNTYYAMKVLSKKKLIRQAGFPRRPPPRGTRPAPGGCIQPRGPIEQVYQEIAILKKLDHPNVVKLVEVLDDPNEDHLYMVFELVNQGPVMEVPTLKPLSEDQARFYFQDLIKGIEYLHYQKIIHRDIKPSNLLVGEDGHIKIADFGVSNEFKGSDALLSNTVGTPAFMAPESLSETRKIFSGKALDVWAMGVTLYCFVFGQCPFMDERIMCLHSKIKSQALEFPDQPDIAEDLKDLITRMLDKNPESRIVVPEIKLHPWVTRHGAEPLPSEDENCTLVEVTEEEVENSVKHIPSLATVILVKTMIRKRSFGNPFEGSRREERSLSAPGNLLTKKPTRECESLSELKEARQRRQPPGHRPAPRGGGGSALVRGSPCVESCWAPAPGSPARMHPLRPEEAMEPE
T3 sequence (P68400 whole entry): as the sequence (P68400 whole entry) above
T7 sequence (P36888 27-993): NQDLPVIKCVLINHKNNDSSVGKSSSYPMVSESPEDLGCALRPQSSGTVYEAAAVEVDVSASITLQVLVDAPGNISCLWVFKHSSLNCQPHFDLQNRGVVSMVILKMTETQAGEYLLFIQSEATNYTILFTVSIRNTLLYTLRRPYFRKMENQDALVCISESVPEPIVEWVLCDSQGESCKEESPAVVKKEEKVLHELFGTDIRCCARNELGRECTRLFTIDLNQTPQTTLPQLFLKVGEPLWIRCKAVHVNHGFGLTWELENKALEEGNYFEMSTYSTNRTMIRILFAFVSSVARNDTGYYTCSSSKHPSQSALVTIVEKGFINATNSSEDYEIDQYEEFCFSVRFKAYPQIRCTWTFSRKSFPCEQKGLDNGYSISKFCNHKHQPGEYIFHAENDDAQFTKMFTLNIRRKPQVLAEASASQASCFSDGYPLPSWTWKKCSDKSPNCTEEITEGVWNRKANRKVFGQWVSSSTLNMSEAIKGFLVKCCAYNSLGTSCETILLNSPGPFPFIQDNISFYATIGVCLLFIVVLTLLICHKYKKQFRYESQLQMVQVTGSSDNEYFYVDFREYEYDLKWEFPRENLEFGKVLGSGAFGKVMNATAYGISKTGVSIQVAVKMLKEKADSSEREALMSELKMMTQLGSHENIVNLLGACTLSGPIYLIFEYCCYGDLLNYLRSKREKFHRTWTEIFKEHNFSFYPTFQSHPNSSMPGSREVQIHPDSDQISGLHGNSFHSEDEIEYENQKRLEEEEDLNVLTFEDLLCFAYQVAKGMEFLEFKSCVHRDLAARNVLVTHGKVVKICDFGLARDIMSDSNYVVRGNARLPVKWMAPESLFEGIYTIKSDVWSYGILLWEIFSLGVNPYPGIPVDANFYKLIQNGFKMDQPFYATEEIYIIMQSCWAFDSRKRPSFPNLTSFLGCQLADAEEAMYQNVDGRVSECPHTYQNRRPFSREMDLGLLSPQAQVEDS

With `COc1ccc(N/C=C2\C(=O)CCc3c2oc2cc(Cl)c(O)c(Cl)c32)cc1` [4a, 7,9-dichloro-1,2-dihydro-8-hydroxy-4-[(4-methoxyphenylamino)methylene]dibenzo[b,d]furan-3(2H)-one], the remaining activity at 10 µM in assay [1] was less than 1%; at CK2α’, less than 1%; on CK2α, less than 2%. Moreover, the IC50 was 7 nM and 5 nM in assay [1]; 62 nM in assay [2]. Also, the Ki is 0.41 nM and 0.4 nM in assay [1] (setting [3]); approximately 4 nM in assay [1] (repeated with double the amount of the enzyme CK2, different ATP concentrations, read-out: Ki app). For the same compound, the “kinase inhibited more than 70% at 10 µM concentration” value was “Aurora A” on Aurora A, “CAMKK2” at CAMKK2 and “FLT3” at FLT3.
`COc1ccc(/N=C/c2c(O)ccc3c2oc2cc(Cl)c(O)c(Cl)c23)cc1` [compound 5, (E)-1,3-dichloro-6-[(4-methoxyphenylimino)methyl]dibenzo[b,d]furan-2,7-diol]: the figures for the remaining activity at 10 µM (in assay [1]; on CK2α’; on CK2α) were less than 1%, less than 1% and less than 2%, respectively. Besides, the IC50 is 5 nM and 7 nM in assay [1]; 98 nM in assay [2]. Besides, the Ki in assay [1] (setting [3]) is 0.46 nM and 0.4 nM. For the same compound, the entries for the “kinase inhibited more than 70% at 10 µM concentration” value on Aurora A, at CAMKK2 and at FLT3 were “Aurora A”, “CAMKK2” and “FLT3”, respectively.
As for `Cc1ccc(NC=C2C(=O)CCc3c2oc2c(Cl)c(Cl)c(O)cc32)cc1` [4b, 6,7-dichloro-1,4-dihydro-8-hydroxy-4-[(4-methylphenylamino)methylene]dibenzo[b,d]furan-3(2H)-one], the IC50 in assay [2] is 877 nM.
